Results reported in PMC12314183, “RM2 and DB15 analogues bearing [^177Lu]Lu-DOTAGA via different linkers, as radiotherapeutics: a head-to-head comparative study” (EJNMMI Radiopharmacy and Chemistry, 2025).
Blank lines part the entries; values can stand above or below the molecule they belong to.

Legend:
[1] = system: PC-3 xenograft bearing mice; design: AUC Kidneys: unit not given beside the values; conditions: mouse, in vivo
GRPR = target: T1, GRPR (Homo sapiens, UniProt P30550); assay: Receptor affinity and kinetics by LigandTracer on living PC-3 cells; type: binding
T1 construct: host or cells: PC-3 (human prostate cancer cell line)
T1 sequence (P30550 whole entry): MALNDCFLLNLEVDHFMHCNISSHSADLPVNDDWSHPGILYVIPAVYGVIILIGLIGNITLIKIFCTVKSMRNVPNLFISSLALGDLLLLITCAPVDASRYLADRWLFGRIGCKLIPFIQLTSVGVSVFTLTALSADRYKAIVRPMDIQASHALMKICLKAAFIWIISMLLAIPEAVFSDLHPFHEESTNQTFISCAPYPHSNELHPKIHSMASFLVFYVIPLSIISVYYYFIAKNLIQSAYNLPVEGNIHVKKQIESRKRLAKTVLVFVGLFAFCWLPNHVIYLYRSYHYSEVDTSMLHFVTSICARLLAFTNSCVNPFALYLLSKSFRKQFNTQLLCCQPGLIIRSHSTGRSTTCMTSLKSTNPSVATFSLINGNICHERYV
Protocol: Receptor affinity was measured using a LigandTracer yellow (Ridgeview Instruments AB, Uppsala, Sweden). For each measurement 3 million PC-3 cells were seeded in 100 mm dishes (Corning St. Oneonta, N.Y., USA) the day before the experiment. Three concentrations for each radioligand were tested (1, 3 and 5 nM) in order to determine the association values. After reaching plateau, the media containing the radioligands were removed, fresh complete media were introduced in the plates and the dissociation phase was measured overnight.

[2] = system: PC-3 xenograft bearing mice; assay: Biodistribution in PC-3 xenograft bearing mice; conditions: mouse, in vivo
Protocol: The biodistribution profile for the four radioligands was determined in female Balb/c nu/nu mice. All the animals were subcutaneously implanted with a suspension of 8 × 10^6 PC-3 cells in the right hind leg. After approximately 3–4 weeks, tumours were developed and animals were randomized in groups of four (with the exception of the Block groups comprising instead 3 animals). For each radioligand 3 groups were used, namely, 4 h, 23 h pi and 4 h Block. Each animal received 2.82 mg of sacubitril (in the form of 12 mg of an Entresto pill suspension) per os and after 30 min, a bolus iv injection of 100–110 kBq of [^177Lu]Lu-peptide (corresponding to 100 pmol total peptide). Animals were euthanized at the predetermined time points and tissues of interest and xenografts were collected, weighted and their activity content was measured in the gamma counter. […] Statistical analysis was performed using GraphPad Prism 10 and a two-way ANOVA with Tuckey’s post hock analysis. Area under curve for kidneys and tumours was estimated by fitting a one-phase decay model and calculating the area under the resulting equation.

tumours = conditions: ref Dumont et al. [2013], cited from earlier work
From the text: For [^177Lu]Lu-RM2 (Dumont et al. [2013]), the reported dose per animal was 250 pmol peptide corresponding to 4.63 MBq.

[3] = 5 min pi, ref Nock et al. [2017]; cited from earlier work
From the text: (§1) In comparison with [^177Lu]Lu-NeoBomb1 (Dalm et al. [2017]; Nock et al. [2017]), [^177Lu]Lu-AU-SAR-M1 utilizes a different chelator (DOTAGA for AU-SAR-M1 and DOTA for NeoBomb1).

[4] = system: PC-3 xenograft bearing mice; conditions: 4 h pi, ref Dalm et al. [2017], cited from earlier work
From the text: as §1

[5] = living PC-3 cells, 1:1 model used (footnote)

- AUC Kidneys [1]: 56
- AUC Tumour [1]: 62
Molecule: CC(C)C[C@H](NC(=O)C[C@H](O)[C@H](CC(C)C)NC(=O)[C@H](Cc1c[nH]cn1)NC(=O)CN(C)C(=O)[C@@H](NC(=O)[C@H](C)NC(=O)[C@H](Cc1c[nH]c2ccccc12)NC(=O)[C@H](CCC(N)=O)NC(=O)[C@@H](Cc1ccccc1)NC(=O)CN1CCC(NC(=O)COCCOCCNC(=O)CCC(C(=O)O)N2CCN(CC(=O)O)CCN(CC(=O)O)CCN(CC(=O)O)CC2)CC1)C(C)C)C(N)=O (some centres unmarked) [[^177Lu]Lu-AU-RM26-M2, DOTAGA-PEG2-Pip-[NMe-Gly^11]RM26, metal not drawn]

Molecule: CCNC(=O)[C@H](CC(C)C)NC(=O)[C@H](Cc1c[nH]cn1)NC(=O)CN(C)C(=O)[C@@H](NC(=O)[C@H](C)NC(=O)[C@H](Cc1c[nH]c2ccccc12)NC(=O)[C@H](CCC(N)=O)NC(=O)[C@@H](Cc1ccccc1)NC(=O)COCC(=O)Nc1ccc(CNC(=O)CCC(C(=O)O)N2CCN(CC(=O)O)CCN(CC(=O)O)CCN(CC(=O)O)CC2)cc1)C(C)C (some centres unmarked) [[^177Lu]Lu-AU-SAR-M1, DOTAGA-AMA-DIG-SAR, metal not drawn]
- ka1 (GRPR; living PC-3 cells, 1, 3 and 5 nM, 1:2 model): 65700 M⁻¹ s⁻¹
- ka2 (GRPR; living PC-3 cells, 1:2 model): 614000 M⁻¹ s⁻¹
- kd1 (GRPR; living PC-3 cells, 1:2 model): 1.76 × 10^–6 s^−1
- kd2 (GRPR; living PC-3 cells, 1:2 model): 7.43 × 10^–4 s^−1
- AUC Kidneys [1]: 45
- AUC Tumour [1]: 242
- AUC ratio Tumour/Kidneys [1]: 5.4
- tumour-to-kidney ratio for the estimated AUC, times better than the next candidate [2]: 1.4 times

- ka1 (GRPR; [5]): 90900 M⁻¹ s⁻¹
- kd1 (GRPR; [5]): 6.44 × 10^–7 s^−1
- AUC Kidneys [1]: 68
- AUC Tumour [1]: 259
- AUC ratio Tumour/Kidneys [1]: 3.8
- Tumour-to-Kidneys AUC ratio, fold higher than [^177Lu]Lu-AU-RM26-M4 [1]: 1.6 fold
- Tumour-to-Kidneys AUC ratio, fold higher than [^177Lu]Lu-AU-SAR-M1 [1]: 1.4 fold
Molecule: CCNC(=O)[C@H](CC(C)C)NC(=O)[C@H](Cc1c[nH]cn1)NC(=O)CN(C)C(=O)[C@@H](NC(=O)[C@H](C)NC(=O)[C@H](Cc1c[nH]c2ccccc12)NC(=O)[C@H](CCC(N)=O)NC(=O)[C@@H](Cc1ccccc1)NC(=O)COCC(=O)Nc1ccc(CNC(=O)[C@H](CCCNC(=N)N)NC(=O)CCC(C(=O)O)N2CCN(CC(=O)O)CCN(CC(=O)O)CCN(CC(=O)O)CC2)cc1)C(C)C (some centres unmarked) [[^177Lu]Lu-AU-SAR-M2, DOTAGA-Arg-AMA-DIG-SAR, metal not drawn]

Molecule: DOTA-4-amino-1-carboxymethyl-piperidine-DPhe-Gln-Trp-Ala-Val-Gly-His-Sta-Leu-NH2 [[^177Lu]Lu-RM2]
- tumour uptake (tumours; 4 h pi, 250 pmol peptide, 4.63 MBq): 10.97 ± 0.99 %IA/g
- activity uptake in pancreas (tumours; 4 h pi): 0.70 ± 0.12 %IA/g
- activity remaining in the tumours (tumours; 24 h pi relative to 4 h pi): approximately 50%

Molecule: DOTA-AMA-DIG-DPhe-Gln-Trp-Ala-Val-Gly-His-NHCH[(CH2-CH(CH3)2]2 [[^177Lu]Lu-NeoBomb1, Lu-177-based GRPR-antagonist already tested in patients]
- intact peptide detected in mice circulation [3]: 95%
- tumour values ([4]; PC-3 xenograft bearing mice, 200 pmol – 1 MBq): 17.9 ± 3.3 %IA/g
- kidneys uptake [4]: 2.5%
